{
  "source": "patent US20260294839A1",
  "about": "“COMPOSITION AND METHOD OF MAKING” (priority 2023, published 2026)",
  "key": {"[1]": {"details": "if it accumulates excessively at the wound site; cited from earlier work"}, "Staphylococcus aureus": {"test_system": "Staphylococcus aureus", "assay": "Non-peroxide activity (NPA) plate assay with catalase", "type": "cell-based", "details": "duplicate or triplicate mean; invention sample 1 fresh, 2-5 stored 234 days (37° C., room temperature, fridge, freezer)", "method": "In this test, the enzyme catalase was added to the sample to rapidly break down hydrogen peroxide to water and oxygen. […] The test was carried out using a Gram-positive bacteria, Staphylococcus aureus. The result is a value in % w/v relative to phenol standards. Two honey samples and several control samples consisting of glycerol with additional components were tested alongside the composition of the invention samples and the results are shown in Table 4. Samples were run in duplicate or triplicate and the mean result calculated.\n[…] of the composition of the invention were tested: • Sample 1: a freshly made sample • Sample 2: stored for 234 days in a 37° C. incubator • Sample 3: stored for 234 days at room temperature • Sample 4: stored for 234 days in a fridge • Sample 5: stored for 234 days in a freezer\nThe NPA assay was used, as previously in Example 3."}, "[2]": {"test_system": "consortium of S. aureus, E. coli and P. aeruginosa", "assay": "ISO 11930 preservative effectiveness, bacterial consortium", "type": "cell-based", "details": "for log reduction at 50 % v/v: 50.0% v/v aqueous; for log reduction at 5 % / log reduction at 15 % / log reduction at 50 % / Nx: diluted in aqueous solution; for log reduction at 5 % / log reduction at 15 % / log reduction at 50 %: read-out: Rx (log reduction)", "method": "(§1) The ISO 11930 industry standard test was to used measure the effectiveness of the compound to act as a preservative (growth inhibition) for up to 28 days (as tested). Preservative action is used to prevent spoilage and contamination of food, cosmetics, and drugs. First, compositions of the invention were diluted in Glycerol (Tables 7 to 8).\n(§2) Next, compositions of the invention were diluted in aqueous solution.\nAccording to ISO 11930, compositions of the invention produced a log reduction of >4.14 logs at a concentration of 50.0% v/v, 15.0% v/v, and 5.0% v/v as tested after 7 days, 14 days and 28 days at 25° C. against a consortium of Staphylococcus aureus ATCC 6538, Escherichia coli NCTC 10536 and Pseudomonas aeruginosa ATCC 15442 (Table 9). […]"}, "[3]": {"test_system": "consortium of C. albicans and A. brasiliensis", "assay": "ISO 11930 preservative effectiveness, fungal consortium", "type": "cell-based", "details": "for log reduction at 5 % / log reduction at 15 % / log reduction at 50 % / Nx: diluted in aqueous solution; for log reduction at 5 % / log reduction at 15 % / log reduction at 50 %: read-out: Rx (log reduction)", "method": "as §1, §2\nAlso according to ISO 11930, compositions of the invention produced a log reduction of >3.27 logs at a concentration of 50.0% v/v, 15.0% v/v, and 5.0% v/v as tested after 7 days, 14 days and 28 days at 25° C. against a consortium of Candida albicans ATCC 10231 and Aspergillus brasiliensis ATCC 16404 (Table 10). […]"}, "[4]": {"details": "ISO 11930, aqueous solution, 25° C."}},
  "note": "Like-named read-outs stand apart in the source and are kept apart here.",
  "data": [
    {"smiles": "[Ag]", "note": "[Silver, silver]", "values": [
      {"measurement": "effect on wound healing", "setting": "[1]", "result": "inhibit healing"}
    ]},
    {"smiles": "OCC(O)CO", "note": "[Glycerol, glycerol]", "values": [
      {"measurement": "NPA, Mean Result", "setting": "Staphylococcus aureus", "result": "<9.5", "unit": "% w/v phenol equivalent"},
      {"measurement": "level at which it is a preservative, bacteria", "setting": "[2]", "result": "> 50.0", "unit": "% V/V"},
      {"measurement": "log reduction at 50 % v/v", "setting": "[2]; 14 days and 28 days, 25° C.", "result": "> 4.21"},
      {"measurement": "log reduction at 50 % v/v", "setting": "[2]; 168 h, 7 days, 25° C.", "result": 3.67},
      {"measurement": "log reduction at 5 %", "setting": "[2]; 168 h, 5% (V/V), day 7", "result": "< 2.84"},
      {"measurement": "log reduction at 15 %", "setting": "[2]; 168 h, 15% (V/V), day 7", "result": "< 2.84"},
      {"measurement": "log reduction at 50 %", "setting": "[2]; 168 h, 50% (V/V), day 7", "result": 3.67},
      {"measurement": "log reduction at 5 %", "setting": "[2]; 336 h, 5% (V/V), day 14", "result": "< 2.84"},
      {"measurement": "log reduction at 15 %", "setting": "[2]; 336 h, 15% (V/V), day 14", "result": 3.28},
      {"measurement": "log reduction at 50 %", "setting": "[2]; 336 h, 50% (V/V), day 14", "result": "> 4.21"},
      {"measurement": "log reduction at 5 %", "setting": "[2]; 672 h, 5% (V/V), day 28", "result": "< 2.84"},
      {"measurement": "log reduction at 15 %", "setting": "[2]; 672 h, 15% (V/V), day 28", "result": "> 4.21"},
      {"measurement": "log reduction at 50 %", "setting": "[2]; 672 h, 50% (V/V), day 28", "result": "> 4.21"},
      {"measurement": "Preservation Criteria A for bacteria", "setting": "[2]; [4]", "result": "conforms to Preservation Criteria A for bacteria"},
      {"measurement": "Nx", "setting": "[2]; 5% (V/V), day 0", "result": ">3.30E+03"},
      {"measurement": "Nx", "setting": "[2]; 5% (V/V), day 7", "result": ">3.30E+03"},
      {"measurement": "Nx", "setting": "[2]; 5% (V/V), day 14", "result": ">3.30E+03"},
      {"measurement": "Nx", "setting": "[2]; 5% (V/V), day 28", "result": ">3.30E+03"},
      {"measurement": "Nx", "setting": "[2]; 15% (V/V), day 0", "result": ">3.30E+03"},
      {"measurement": "Nx", "setting": "[2]; 15% (V/V), day 7", "result": ">3.30E+03"},
      {"measurement": "Nx", "setting": "[2]; 15% (V/V), day 14", "result": "1.20E+03"},
      {"measurement": "Nx", "setting": "[2]; 15% (V/V), day 28", "result": "<1.40E+02"},
      {"measurement": "Nx", "setting": "[2]; 50% (V/V), day 0", "result": ">3.30E+03"},
      {"measurement": "Nx", "setting": "[2]; 50% (V/V), day 7", "result": "4.95E+02"},
      {"measurement": "Nx", "setting": "[2]; 50% (V/V), day 14", "result": "<1.40E+02"},
      {"measurement": "Nx", "setting": "[2]; 50% (V/V), day 28", "result": "<1.40E+02"},
      {"measurement": "log reduction", "setting": "[3]; 50.0%, 15.0%, 5.0% v/v, 7, 14 and 28 days, 25° C.", "result": "did not produce a measurable log reduction"},
      {"measurement": "log reduction at 5 %", "setting": "[3]; 168 h, 5% (V/V), day 7", "result": "< 1.65"},
      {"measurement": "log reduction at 15 %", "setting": "[3]; 168 h, 15% (V/V), day 7", "result": "< 1.65"},
      {"measurement": "log reduction at 50 %", "setting": "[3]; 168 h, 50% (V/V), day 7", "result": "< 1.65"},
      {"measurement": "log reduction at 5 %", "setting": "[3]; 336 h, 5% (V/V), day 14", "result": "< 1.65"},
      {"measurement": "log reduction at 15 %", "setting": "[3]; 336 h, 15% (V/V), day 14", "result": "< 1.65"},
      {"measurement": "log reduction at 50 %", "setting": "[3]; 336 h, 50% (V/V), day 14", "result": "< 1.65"},
      {"measurement": "log reduction at 5 %", "setting": "[3]; 672 h, 5% (V/V), day 28", "result": "< 1.65"},
      {"measurement": "log reduction at 15 %", "setting": "[3]; 672 h, 15% (V/V), day 28", "result": "< 1.65"},
      {"measurement": "log reduction at 50 %", "setting": "[3]; 672 h, 50% (V/V), day 28", "result": "< 1.65"},
      {"measurement": "Preservation Criteria A for fungi", "setting": "[3]; [4]", "result": "does not conform to Preservation Criteria A for fungi"},
      {"measurement": "Nx", "setting": "[3]; 5% (V/V), day 0", "result": ">3.30E+03"},
      {"measurement": "Nx", "setting": "[3]; 5% (V/V), day 7", "result": ">3.30E+03"},
      {"measurement": "Nx", "setting": "[3]; 5% (V/V), day 14", "result": ">3.30E+03"},
      {"measurement": "Nx", "setting": "[3]; 5% (V/V), day 28", "result": ">3.30E+03"},
      {"measurement": "Nx", "setting": "[3]; 15% (V/V), day 0", "result": ">3.30E+03"},
      {"measurement": "Nx", "setting": "[3]; 15% (V/V), day 7", "result": ">3.30E+03"},
      {"measurement": "Nx", "setting": "[3]; 15% (V/V), day 14", "result": ">3.30E+03"},
      {"measurement": "Nx", "setting": "[3]; 15% (V/V), day 28", "result": ">3.30E+03"},
      {"measurement": "Nx", "setting": "[3]; 50% (V/V), day 0", "result": ">3.30E+03"},
      {"measurement": "Nx", "setting": "[3]; 50% (V/V), day 7", "result": ">3.30E+03"},
      {"measurement": "Nx", "setting": "[3]; 50% (V/V), day 14", "result": ">3.30E+03"},
      {"measurement": "Nx", "setting": "[3]; 50% (V/V), day 28", "result": ">3.30E+03"},
      {"measurement": "level at which it is a preservative, fungi", "setting": "[3]; not tested, shows a fail at 50.0%", "result": "> 60.0", "unit": "%"}
    ]}
  ]
}
